Laboratory results reported in US20260193264A1, “BENZOYPARAZINE PYRAZINES AND THEIR USES” (FOGHORN THERAPEUTICS INC., priority 2022, published 2026).

Tests used:
[1] = target: T1, HiBit-BRG1 fusion protein in stable HeLa cell line expressing HiBit-BRG1 and LgBit (Homo sapiens, UniProt P51532); assay: HiBiT-BRG1 cell-based degradation assay (Nano-Glo HiBiT, 24 h); settings: HeLa HiBit-BRG1/LgBit cells; for DC50: read-out: BRMG1 HiBit Degradation IC50; for Dmax: top dose 30 μM, read-out: BRG1 HiBit Degradation Maximum (%)
T1 construct: expressed in transfected cells
T1 sequence (P51532 whole entry, the tested form may be a part): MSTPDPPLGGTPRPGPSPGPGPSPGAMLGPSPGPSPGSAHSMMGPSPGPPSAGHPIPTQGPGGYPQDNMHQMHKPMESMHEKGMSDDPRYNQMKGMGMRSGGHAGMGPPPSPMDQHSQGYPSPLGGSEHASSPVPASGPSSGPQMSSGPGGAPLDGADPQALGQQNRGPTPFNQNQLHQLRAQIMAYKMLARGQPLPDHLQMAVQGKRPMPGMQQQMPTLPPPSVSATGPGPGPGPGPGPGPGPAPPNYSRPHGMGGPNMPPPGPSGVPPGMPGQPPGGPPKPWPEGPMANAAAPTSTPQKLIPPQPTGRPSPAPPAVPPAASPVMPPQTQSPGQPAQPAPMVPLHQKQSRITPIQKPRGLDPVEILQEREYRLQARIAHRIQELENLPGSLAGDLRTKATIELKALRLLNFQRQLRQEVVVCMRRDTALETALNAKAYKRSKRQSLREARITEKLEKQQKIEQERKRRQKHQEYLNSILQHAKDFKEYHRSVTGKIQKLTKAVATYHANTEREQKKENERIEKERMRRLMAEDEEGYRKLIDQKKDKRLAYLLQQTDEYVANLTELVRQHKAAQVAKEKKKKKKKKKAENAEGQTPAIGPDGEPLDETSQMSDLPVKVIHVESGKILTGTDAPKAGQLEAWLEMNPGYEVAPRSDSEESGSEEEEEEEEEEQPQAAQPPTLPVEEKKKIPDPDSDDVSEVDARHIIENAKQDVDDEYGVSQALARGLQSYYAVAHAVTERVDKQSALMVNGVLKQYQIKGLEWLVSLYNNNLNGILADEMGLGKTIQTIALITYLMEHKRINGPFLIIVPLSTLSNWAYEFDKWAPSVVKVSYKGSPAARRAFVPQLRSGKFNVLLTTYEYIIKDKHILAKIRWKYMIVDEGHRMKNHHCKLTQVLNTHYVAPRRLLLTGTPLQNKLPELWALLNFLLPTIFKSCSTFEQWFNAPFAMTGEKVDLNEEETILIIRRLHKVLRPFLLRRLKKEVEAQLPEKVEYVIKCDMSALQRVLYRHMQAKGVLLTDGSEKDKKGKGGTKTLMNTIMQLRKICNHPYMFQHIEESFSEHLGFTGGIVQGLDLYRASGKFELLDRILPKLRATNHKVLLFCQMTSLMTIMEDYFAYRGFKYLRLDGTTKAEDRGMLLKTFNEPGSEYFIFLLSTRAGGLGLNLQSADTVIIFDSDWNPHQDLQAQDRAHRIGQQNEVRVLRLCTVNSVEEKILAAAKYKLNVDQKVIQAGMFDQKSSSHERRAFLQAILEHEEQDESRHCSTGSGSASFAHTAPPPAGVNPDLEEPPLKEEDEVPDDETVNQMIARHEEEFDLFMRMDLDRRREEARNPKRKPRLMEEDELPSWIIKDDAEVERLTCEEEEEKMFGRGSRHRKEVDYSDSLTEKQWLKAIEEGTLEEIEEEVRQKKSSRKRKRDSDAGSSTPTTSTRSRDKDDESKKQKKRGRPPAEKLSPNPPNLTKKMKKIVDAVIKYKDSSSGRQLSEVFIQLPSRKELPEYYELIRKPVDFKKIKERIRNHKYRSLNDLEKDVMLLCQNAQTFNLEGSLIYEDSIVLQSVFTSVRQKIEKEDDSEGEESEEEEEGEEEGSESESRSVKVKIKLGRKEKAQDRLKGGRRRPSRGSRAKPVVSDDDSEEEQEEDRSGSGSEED
How it was run: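 Degradation calculated from NanoBiT luminescence relative to DMSO-treated cells (high) and cells given 2 μM known BRM/BRG1 degrader (low). HeLa cells stably expressing HiBiT-BRG1 plus LgBiT were exposed to compound for 24 h before lytic HiBiT detection.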

[2] = target: T2, HiBiT-BRM fusion protein in stable HeLa cell line (Homo sapiens, UniProt P51531); assay: HiBiT-BRM cell-based degradation assay (Nano-Glo HiBiT Lytic Detection, 24 h); parameters: DC50: scale not given here; settings: HeLa HiBiT-BRM cells; for DC50: read-out: BRM HiBit Degradation IC50; for BRM HiBit Degradation Maximum (%): top dose 30 μM
T2 construct: expressed in transfected cells
T2 sequence (P51531 whole entry, the tested form may be a part): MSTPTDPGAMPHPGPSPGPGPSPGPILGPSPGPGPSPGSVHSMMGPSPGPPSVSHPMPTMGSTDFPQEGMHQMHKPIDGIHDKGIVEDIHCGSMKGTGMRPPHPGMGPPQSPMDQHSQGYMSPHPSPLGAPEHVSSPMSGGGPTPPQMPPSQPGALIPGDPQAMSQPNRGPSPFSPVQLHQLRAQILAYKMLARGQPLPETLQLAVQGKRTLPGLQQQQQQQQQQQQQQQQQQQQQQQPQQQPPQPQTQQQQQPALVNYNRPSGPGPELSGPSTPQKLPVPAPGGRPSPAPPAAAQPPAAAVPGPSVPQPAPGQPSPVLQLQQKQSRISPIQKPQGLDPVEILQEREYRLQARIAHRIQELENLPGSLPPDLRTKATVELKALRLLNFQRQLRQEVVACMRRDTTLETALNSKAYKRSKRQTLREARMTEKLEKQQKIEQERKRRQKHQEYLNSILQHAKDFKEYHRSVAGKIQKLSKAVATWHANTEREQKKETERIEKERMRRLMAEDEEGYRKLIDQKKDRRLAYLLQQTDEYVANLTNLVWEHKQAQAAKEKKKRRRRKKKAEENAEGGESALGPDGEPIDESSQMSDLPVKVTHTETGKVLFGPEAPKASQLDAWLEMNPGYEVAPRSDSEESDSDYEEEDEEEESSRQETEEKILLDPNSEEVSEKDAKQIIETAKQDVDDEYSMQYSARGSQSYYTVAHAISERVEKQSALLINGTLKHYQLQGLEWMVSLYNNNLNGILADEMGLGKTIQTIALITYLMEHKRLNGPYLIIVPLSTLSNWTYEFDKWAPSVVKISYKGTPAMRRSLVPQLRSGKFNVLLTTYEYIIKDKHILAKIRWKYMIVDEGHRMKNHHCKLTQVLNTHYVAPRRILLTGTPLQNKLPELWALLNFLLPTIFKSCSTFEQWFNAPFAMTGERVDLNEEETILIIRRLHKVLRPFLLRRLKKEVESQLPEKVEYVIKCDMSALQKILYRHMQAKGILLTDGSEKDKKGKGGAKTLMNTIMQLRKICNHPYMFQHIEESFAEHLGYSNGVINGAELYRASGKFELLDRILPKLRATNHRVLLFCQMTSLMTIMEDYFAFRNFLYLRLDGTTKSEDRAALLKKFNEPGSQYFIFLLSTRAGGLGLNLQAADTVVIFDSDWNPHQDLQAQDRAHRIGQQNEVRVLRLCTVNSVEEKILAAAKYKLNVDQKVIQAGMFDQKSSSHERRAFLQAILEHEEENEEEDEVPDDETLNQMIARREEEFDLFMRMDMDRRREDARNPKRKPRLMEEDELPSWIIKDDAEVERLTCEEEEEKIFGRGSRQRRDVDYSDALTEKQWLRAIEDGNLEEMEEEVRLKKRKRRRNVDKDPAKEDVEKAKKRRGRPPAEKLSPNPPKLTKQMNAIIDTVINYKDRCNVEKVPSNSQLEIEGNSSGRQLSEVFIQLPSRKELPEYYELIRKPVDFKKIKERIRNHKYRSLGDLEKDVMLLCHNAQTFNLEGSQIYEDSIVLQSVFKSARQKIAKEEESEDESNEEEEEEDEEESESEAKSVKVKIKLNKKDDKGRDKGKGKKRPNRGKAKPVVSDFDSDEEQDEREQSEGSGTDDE
How it was run: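 HiBiT-tagged BRM levels in a stable HeLa line are measured after one day of compound treatment (up to 30 μM final, duplicate 10-point curves) by adding LgBiT lytic reagent and reading bioluminescence; values are expressed relative to vehicle and a 2 μM degrader control.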

SMILES	DC50 [1] [nM]	Dmax [1] [%]	DC50 [2] [nM]	BRM HiBit Degradation Maximum (%) [2]
Cc1ncsc1-c1ccc([C@H](C)NC(=O)[C@@H]2C[C@@H](O)CN2C(=O)[C@@H](c2cc(N3CC4(C3)CN(c3cc5nnc(-c6ccccc6O)cc5cc3OC(F)F)C4)no2)C(C)C)cc1 [Compound 206, (2S,4R)-1-((R)-2-(3-(6-(6-(difluoromethoxy)-3-(2-hydroxyphenyl)cinnolin-7-yl)-2,6-diazaspiro[3.3]heptan-2-yl)isoxazol-5-yl)-3-methylbutanoyl)-4-hydroxy-N-((S)-1-(4-(4-methylthiazol-5-yl)phenyl)ethyl)pyrrolidine-2-carboxamide]	> 10	> 50	< 10	A (“A” indicates maximum degradation ≥75%)
Cc1ncsc1-c1ccc([C@H](C)NC(=O)[C@@H]2C[C@@H](O)CN2C(=O)[C@@H](c2cc(N3CC4(C3)CN(c3cc5nnc(-c6ccccc6O)cc5cc3N(C)C)C4)no2)C(C)C)cc1 [Compound 207, (2S,4R)-1-((R)-2-(3-(6-(6-(dimethylamino)-3-(2-hydroxyphenyl)cinnolin-7-yl)-2,6-diazaspiro[3.3]heptan-2-yl)isoxazol-5-yl)-3-methylbutanoyl)-4-hydroxy-N-((S)-1-(4-(4-methylthiazol-5-yl)phenyl)ethyl)pyrrolidine-2-carboxamide]	< 10	> 75	< 10	A (“A” indicates maximum degradation ≥75%)
Cc1ncsc1-c1ccc([C@H](C)NC(=O)[C@@H]2C[C@@H](O)CN2C(=O)[C@H](C(C)C)n2cc(C3CC4(CC(c5ccc6cc(-c7ccccc7O)nnc6c5)C4)C3)nn2)cc1 (stereo partly drawn) [Compound 208, (2S,4R)-4-hydroxy-1-[(2S)-2-(4-{6-[3-(2-hydroxyphenyl)cinnolin-7-yl]spiro[3.3]heptan-2-yl}-1,2,3-triazol-1-yl)-3-methylbutanoyl]-N-[(1S)-1-[4-(4-methyl-1,3-thiazol-5-yl)phenyl]ethyl]pyrrolidine-2-carboxamide]	> 10	> 75	< 10	A (“A” indicates maximum degradation ≥75%)
CNC(=O)[C@@H]1C[C@@H](O)CN1C(=O)[C@@H](c1cc(N2CC3(C2)CN(c2cc4nnc(-c5ccccc5O)cc4cc2OC)C3)no1)C(C)C [Compound 209, (2S,4R)-4-hydroxy-1-((R)-2-(3-(6-(3-(2-hydroxyphenyl)-6-methoxycinnolin-7-yl)-2,6-diazaspiro[3.3]heptan-2-yl)isoxazol-5-yl)-3-methylbutanoyl)-N-methylpyrrolidine-2-carboxamide]		< 50	< 10	A (“A” indicates maximum degradation ≥75%)
Cc1ncsc1-c1ccc([C@H](C)NC(=O)[C@@H]2C[C@@H](O)CN2C(=O)[C@H](C2CCC2)n2cc(N3CC4(CN(c5ccc6cc(-c7ccccc7O)nnc6c5)C4)C3)nn2)cc1 [Compound 211, (2S,4R)-1-((S)-2-cyclobutyl-2-(4-(6-(3-(2-hydroxyphenyl)cinnolin-7-yl)-2,6-diazaspiro[3.3]heptan-2-yl)-1H-1,2,3-triazol-1-yl)acetyl)-4-hydroxy-N-((S)-1-(4-(4-methylthiazol-5-yl)phenyl)ethyl)pyrrolidine-2-carboxamide]		< 50	< 10	A (“A” indicates maximum degradation ≥75%)
Cc1ncsc1-c1ccc([C@H](C)NC(=O)[C@@H]2C[C@@H](O)CN2C(=O)[C@H](C(C)C)n2cc(N3CC4(CC(c5ccc6cc(-c7ccccc7O)nnc6c5)C4)C3)nn2)cc1 [Compound 212, (2S,4R)-4-hydroxy-1-((S)-2-(4-(6-(3-(2-hydroxyphenyl)cinnolin-7-yl)-2-azaspiro[3.3]heptan-2-yl)-1H-1,2,3-triazol-1-yl)-3-methylbutanoyl)-N-((S)-1-(4-(4-methylthiazol-5-yl)phenyl)ethyl)pyrrolidine-2-carboxamide]	> 10	> 75	< 10	A (“A” indicates maximum degradation ≥75%)
Cc1ncsc1-c1ccc([C@H](C)NC(=O)[C@@H]2C[C@@H](O)CN2C(=O)C(C(C)C)n2cc(N3C[C@H]4CN(c5ccc6cc(-c7ccccc7O)nnc6c5)C[C@H]4C3)nn2)cc1 (stereo partly drawn) [Compound 213, (2S,4R)-4-hydroxy-1-(2-(4-((3aR,6aS)-5-(3-(2-hydroxyphenyl)cinnolin-7-yl)hexahydropyrrolo[3,4-c]pyrrol-2(1H)-yl)-1H-1,2,3-triazol-1-yl)-3-methylbutanoyl)-N-((S)-1-(4-(4-methylthiazol-5-yl)phenyl)ethyl)pyrrolidine-2-carboxamide]		< 50	< 10	A (“A” indicates maximum degradation ≥75%)
Cc1ncsc1-c1ccc([C@H](C)NC(=O)[C@@H]2C[C@@H](O)CN2C(=O)[C@H](C(C)C)n2cc(N3CCN4CCN(c5ccc6nnc(-c7ccccc7O)cc6c5)CC4C3)nn2)cc1 (stereo partly shown) [Compound 214]		> 50	< 10	A (“A” indicates maximum degradation ≥75%)
CC(C)[C@@H](C(=O)N1C[C@H](O)C[C@H]1C(=O)N[C@@H](C)c1ccc(F)cc1)c1cc(N2CC3(C2)CN(c2cc4nnc(-c5ccccc5O)cc4cc2C#N)C3)no1 [Compound 217, (2S,4R)-1-((R)-2-(3-(6-(6-cyano-3-(2-hydroxyphenyl)cinnolin-7-yl)-2,6-diazaspiro[3.3]heptan-2-yl)isoxazol-5-yl)-3-methylbutanoyl)-N-((S)-1-(4-fluorophenyl)ethyl)-4-hydroxypyrrolidine-2-carboxamide]		< 50	< 10	A (“A” indicates maximum degradation ≥75%)
COc1cc2cc(-c3ccccc3O)nnc2cc1CN1CC[C@@H](N2CCN(c3cc([C@H](C(=O)N4C[C@H](O)C[C@H]4C(=O)N[C@@H](C)c4ccc(-c5scnc5C)cc4)C(C)C)on3)CC2)C(F)(F)C1 [Compound 218, (2S,4R)-1-[(2R)-2-(3-{4-[(4R)-3,3-difluoro-1-{[3-(2-hydroxyphenyl)-6-methoxycinnolin-7-yl]methyl}piperidin-4-yl]piperazin-1-yl}-1,2-oxazol-5-yl)-3-methylbutanoyl]-4-hydroxy-N-[(1S)-1-[4-(4-methyl-1,3-thiazol-5-yl)phenyl]ethyl]pyrrolidine-2-carboxamide]	> 10	> 75	< 10	A (“A” indicates maximum degradation ≥75%)
COc1cc2cc(-c3ccccc3O)nnc2cc1CN1CC[C@H](N2CCN(c3cc([C@H](C(=O)N4C[C@H](O)C[C@H]4C(=O)N[C@@H](C)c4ccc(-c5scnc5C)cc4)C(C)C)on3)CC2)C(F)(F)C1 [Compound 219, (2S,4R)-1-((R)-2-(3-(4-((S)-3,3-difluoro-1-((3-(2-hydroxyphenyl)-6-methoxycinnolin-7-yl)methyl)piperidin-4-yl)piperazin-1-yl)isoxazol-5-yl)-3-methylbutanoyl)-4-hydroxy-N-((S)-1-(4-(4-methylthiazol-5-yl)phenyl)ethyl)pyrrolidine-2-carboxamide]	> 10	> 75	< 10	A (“A” indicates maximum degradation ≥75%)
Cc1ncsc1-c1ccc([C@H](C)NC(=O)[C@@H]2C[C@@H](O)CN2C(=O)[C@@H](c2cc(N3CC4(CC(c5cc6nnc(-c7ccccc7O)cc6cc5Cl)C4)C3)no2)C(C)C)cc1 [Compound 220, (2S,4R)-1-((R)-2-(3-(6-(6-chloro-3-(2-hydroxyphenyl)cinnolin-7-yl)-2-azaspiro[3.3]heptan-2-yl)isoxazol-5-yl)-3-methylbutanoyl)-4-hydroxy-N-((S)-1-(4-(4-methylthiazol-5-yl)phenyl)ethyl)pyrrolidine-2-carboxamide]	> 10	> 75	< 10	A (“A” indicates maximum degradation ≥75%)
Cc1ncsc1-c1ccc([C@H](C)NC(=O)[C@@H]2C[C@@H](O)CN2C(=O)[C@@H](c2cc(N3CC4(CC(c5cc6nnc(-c7ccccc7O)cc6cc5C#N)C4)C3)no2)C(C)C)cc1 [Compound 222, (2S,4R)-1-((R)-2-(3-(6-(6-cyano-3-(2-hydroxyphenyl)cinnolin-7-yl)-2-azaspiro[3.3]heptan-2-yl)isoxazol-5-yl)-3-methylbutanoyl)-4-hydroxy-N-((S)-1-(4-(4-methylthiazol-5-yl)phenyl)ethyl)pyrrolidine-2-carboxamide]		< 50	< 10	A (“A” indicates maximum degradation ≥75%)
C#Cc1ccc(CNC(=O)[C@@H]2C[C@@H](O)CN2C(=O)[C@H](C(C)C)n2cc(N3CC4(CN(c5ccc6cc(-c7ccccc7O)nnc6c5)C4)C3)nn2)c(Cl)c1 [Compound 223, (2S,4R)—N-[(2-chloro-4-ethynylphenyl)methyl]-4-hydroxy-1-[(2S)-2-(4-{6-[3-(2-hydroxyphenyl)cinnolin-7-yl]-2,6-diazaspiro[3.3]heptan-2-yl}-1,2,3-triazol-1-yl)-3-methylbutanoyl]pyrrolidine-2-carboxamide]		> 50	< 10	A (“A” indicates maximum degradation ≥75%)
